Columns and labels:
human NET = biological target: T1, human NET (Homo sapiens, UniProt P23975); assay: Norepinephrine uptake inhibition in hNET-transfected HEK 293 cells; type: cell-based
T1 construct: expressed in transfected cells; host or cells: HEK 293 (stably transfected)

human DAT = biological target: T2, human DAT (Homo sapiens, UniProt Q01959); assay: Dopamine uptake inhibition in hDAT-transfected HEK 293 cells; type: cell-based
T2 construct: expressed in transfected cells; host or cells: HEK 293 (stably transfected)
T2 sequence (Q01959 whole entry): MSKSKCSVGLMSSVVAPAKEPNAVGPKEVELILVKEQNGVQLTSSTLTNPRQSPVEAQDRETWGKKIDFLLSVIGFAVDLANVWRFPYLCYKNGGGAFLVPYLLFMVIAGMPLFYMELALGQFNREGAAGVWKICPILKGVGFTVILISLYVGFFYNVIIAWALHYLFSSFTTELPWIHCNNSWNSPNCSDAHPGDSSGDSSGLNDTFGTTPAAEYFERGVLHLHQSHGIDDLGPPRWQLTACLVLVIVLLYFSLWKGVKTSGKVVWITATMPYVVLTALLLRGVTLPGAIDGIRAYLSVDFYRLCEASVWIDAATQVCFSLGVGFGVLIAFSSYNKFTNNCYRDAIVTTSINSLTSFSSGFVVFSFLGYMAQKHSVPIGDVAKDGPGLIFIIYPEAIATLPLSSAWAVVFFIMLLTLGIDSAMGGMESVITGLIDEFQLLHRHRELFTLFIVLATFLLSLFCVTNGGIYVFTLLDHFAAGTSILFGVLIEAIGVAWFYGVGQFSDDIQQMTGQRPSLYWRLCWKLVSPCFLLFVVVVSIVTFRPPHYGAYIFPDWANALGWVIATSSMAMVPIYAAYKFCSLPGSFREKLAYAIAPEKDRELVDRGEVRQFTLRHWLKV

human SERT = biological target: T3, human SERT (Homo sapiens, UniProt P31645); assay: Serotonin uptake inhibition in hSERT-transfected HEK 293 cells; type: cell-based
T3 construct: expressed in transfected cells; host or cells: HEK 293 (stably transfected)
T3 sequence (P31645 whole entry): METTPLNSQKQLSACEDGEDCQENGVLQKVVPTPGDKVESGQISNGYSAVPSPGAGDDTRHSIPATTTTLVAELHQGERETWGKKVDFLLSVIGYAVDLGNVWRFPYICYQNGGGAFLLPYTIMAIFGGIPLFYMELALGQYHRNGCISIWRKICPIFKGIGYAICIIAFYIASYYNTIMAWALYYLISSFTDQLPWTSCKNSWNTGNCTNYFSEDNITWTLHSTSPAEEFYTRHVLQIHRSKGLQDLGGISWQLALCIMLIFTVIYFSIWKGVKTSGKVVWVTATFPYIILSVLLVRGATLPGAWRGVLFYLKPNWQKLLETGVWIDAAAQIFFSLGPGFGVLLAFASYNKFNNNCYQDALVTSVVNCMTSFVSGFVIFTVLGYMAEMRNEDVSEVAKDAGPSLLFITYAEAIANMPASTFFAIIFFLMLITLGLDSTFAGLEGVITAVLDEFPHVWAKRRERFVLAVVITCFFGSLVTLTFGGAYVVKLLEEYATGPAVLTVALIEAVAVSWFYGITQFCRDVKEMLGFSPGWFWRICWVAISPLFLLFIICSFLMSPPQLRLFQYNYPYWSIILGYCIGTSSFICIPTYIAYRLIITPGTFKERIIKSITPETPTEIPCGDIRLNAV

HepG2 cells [1] = assay: Cell membrane integrity (ToxiLight BioAssay); type: cell-based, human; settings: HepG2, 24 h exposure; tested up to 2 mM
Description: Cell membrane integrity loss was assessed with the ToxiLight BioAssay Kit (Lonza, Basel, Switzerland) as a marker of cytotoxicity. Briefly, HepG2 cells were seeded in a 96-well plate at a density of 25,000 cells per well. The following day, the cells were treated with 100 μl of the compounds of interest dissolved in medium (0.25, 0.5, 1.0, and 2.0 mM of each drug, and additionally, 0.1 mM of 4-fluoroamphetamine and 4-chloroamphetamine). Triton X-100 (0.5%) was chosen as positive control to induce cell lysis. After 24 h, 50 μl of the ToxiLight assay buffer was added to 20 μl of the supernatant of the drug treatments. After 5 min incubation under shaking, luminescence was measured with a M200 Pro Infinity plate reader (Tecan, Männedorf, Switzerland) and compared to medium control. The amount of viable cells (no cell membrane integrity loss) was calculated in relation to untreated cells and cells lysed with Triton X-100, which were determined to represent 100% and 0% viable cells, respectively.
(§1) All statistical analyses were performed using GraphPad Prism 7.0c (GraphPad Software, La Jolla, CA, USA). For toxicology assays, differences between control and test drugs were calculated with ANOVA followed by Dunett’s test. p below 0.05 was considered statistically significant. Monoamine uptake data were fit by nonlinear regression to variable slope sigmoidal dose-response curves to assess IC50 values.

HepG2 cells [2] = assay: ATP content (CellTiter-Glo); type: cell-based, human; settings: HepG2, 24 h exposure
Description: The ATP content was assessed with the CellTiter-Glo Luminescent Cell Viability Assay (Promega, Dübendorf, Switzerland). Briefly, HepG2 cells were seeded in a 96-well plate at a density of 25,000 cells per well. The following day, the cells were treated with 100 μl of the test substances dissolved in medium (0.25, 0.5, 1.0, and 2.0 mM of each drug, and additionally, 0.1 mM of 4-fluoroamphetamine and 4-chloroamphetamine). Triton X-100 (0.5%) was chosen as positive control to induce cell lysis. After 24 h incubation, 50 μl of the supernatant was discarded, and 50 μl of CellTiter-Glo reagent was added to each well. The plate was then shaken for 15 min at room temperature to induce cell lysis. Thereafter, luminescence was measured with a M200 Pro Infinity plate reader (Tecan, Männedorf, Switzerland) and compared to medium control.
as §1

HepG2 cells [3] = assay: Cellular oxygen consumption rate (Seahorse XF24); type: cell-based, human; settings: HepG2, 24 h exposure; for Concentration disrupting cellular respiration: investigated range ≤2 mM; for Concentration decreasing maximal respiratory capacity: OCR after FCCP
Description: The cellular oxygen consumption rate (OCR) was measured with a Seahorse XF24 Analyzer (Seahorse Biosciences, North Billerica, MA, USA). Briefly, HepG2 cells were seeded in a poly-D-lysine coated Seahorse XF24 cell culture microplate at a density of 100,000 cells per well. The following day, the cells were treated with the compounds of interest dissolved in 100 μl culture medium. After 24 h incubation, the medium was removed, and the cells were washed twice with pre-warmed and unbuffered DMEM (4 mM L-glutamate, 1 mM pyruvate, 1 g/L glucose, 63.3 mM sodium chloride, pH 7.4). Thereafter, 750 μl of unbuffered DMEM was added to each well, and the plate was incubated in a CO2 free incubator for 40 min at 37°C. The ports of the XF24 assay cartridge were then loaded with oligomycin, trifluoromethoxy carbonylcyanide phenylhydrazone (FCCP), or rotenone at a final assay concentration of 1 μM, and the cartridge was loaded into the Seahorse XF24 Analyzer. First, oligomycin was injected to inhibit mitochondrial phosphorylation, allowing a quantification of proton leak. Second, oxidative phosphorylation was uncoupled from ATP synthesis by FCCP to determine the maximal respiratory capacity of the cells. Third, rotenone was injected to inhibit complex I of the electron transport chain in order to assess for extramitochondrial respiration, which was then subtracted from basal, leak, and maximal respiration. The protein content was determined using sulforhodamine B staining. The cells were fixed with 100 μl trichloroacetic acid (50% [w/v]), added to each well of the assay plate. After 1 h at 4°C, the cells were washed with deionized water and stained with sulforhodamine B (0.4% [w/v], in 1% [v/v] acetic acid). After 20 min, the cells were rapidly washed with 1% (v/v) acetic acid, and the incorporated dye was solubilized with 100 μl of 10 mM TRIS base. The absorbance was then measured at 490 nm.
as §1

HepG2 cells [4] = assay: Mitochondrial superoxide production (MitoSOX); type: cell-based, human; settings: HepG2, 24 h exposure
Description: Briefly, HepG2 cells were seeded in a 96-well plate at a density of 25,000 cells per well. The following day, the cells were treated with 100 μl of the test substances dissolved in medium (0.25, 0.5, 1.0, and 2.0 mM of each drug, and additionally, 0.1 mM of 4-fluoroamphetamine and 4-chloroamphetamine). Amiodarone (50 μM) was included as positive control. After 24 h incubation, 100 μl of MitoSOX reagent (2.5 μM) was added to each well for 10 min at 37°C protected from light. After that, fluorescence was measured at 510/580 nm with a M200 Pro Infinity plate reader (Tecan, Männedorf, Switzerland). The protein content was assessed with the Pierce BCA Protein Assay Kit (Thermo Fisher Scientific, Basel, Switzerland).
as §1

HepG2 cells [5] = assay: Mechanisms of cell death (annexin V / propidium iodide flow cytometry); type: cell-based, human; settings: HepG2, 24 h exposure; for Concentration causing significant reduction in cell viability (annexin V staining): highest concentration 2 mM; for Main mechanism of cell death: 4-chloroamphetamine at 0.5 mM
Text: Annexin V, a Ca^2+-dependent phospholipid-binding protein that has a high affinity for phosphatidylserine, was used to determine the percentage of apoptotic cells. Phosphatidylserine is located in the inner cytoplasmic surface of intact cell membranes; in apoptotic cells, phosphatidylserine is translocated to the outer leaflet of the plasma membrane where annexin V binds to it. To assess the percentage of dead cells composed of necrotic and late apoptotic cells, propidium iodide, a red fluorescent dye not permeable to live and apoptotic cells but able to stain permeable necrotic cells by binding to the nucleic acid in the cell, was used. Briefly, 100,000 HepG2 cells per well were seeded in a 48-well plate and cultured overnight. The following day, the cells were treated with 250 μl of the compounds of interest dissolved in medium at concentrations selected based on ATP depletion and cell membrane disruption. Doxorubicin (0.5 μM) was included as positive control. After incubation for 24 h, the cells were harvested with 0.05% trypsin and washed with phosphate buffered saline (pH = 7.4). […] After 15 min incubation in the dark, the cells were analyzed with a CytoFLEX flow cytometer (Beckman Coulter, IN, USA) gating for 10,000 cells.
as §1

T1 sequence (P23975 whole entry): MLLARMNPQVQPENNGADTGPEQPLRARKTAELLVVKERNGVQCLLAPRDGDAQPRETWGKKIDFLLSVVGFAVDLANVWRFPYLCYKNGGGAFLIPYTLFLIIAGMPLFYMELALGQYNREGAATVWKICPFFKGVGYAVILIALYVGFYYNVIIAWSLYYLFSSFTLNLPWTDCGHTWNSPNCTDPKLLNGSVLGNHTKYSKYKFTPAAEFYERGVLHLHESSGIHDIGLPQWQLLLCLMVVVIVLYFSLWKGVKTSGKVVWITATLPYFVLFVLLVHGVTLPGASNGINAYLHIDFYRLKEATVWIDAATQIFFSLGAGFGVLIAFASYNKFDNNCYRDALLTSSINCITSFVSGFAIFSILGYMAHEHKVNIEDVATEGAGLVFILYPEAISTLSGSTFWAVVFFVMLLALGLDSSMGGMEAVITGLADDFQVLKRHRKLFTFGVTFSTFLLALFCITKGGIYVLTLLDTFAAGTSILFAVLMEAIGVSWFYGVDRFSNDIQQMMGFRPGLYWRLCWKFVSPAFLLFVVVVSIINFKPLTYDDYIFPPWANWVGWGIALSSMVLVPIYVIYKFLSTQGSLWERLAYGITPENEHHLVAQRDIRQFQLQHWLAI

Compound	IC50 (human NET) [µM]	DAT/SERT ratio (human DAT)	IC50 (human DAT) [µM]	IC50 (human SERT) [µM]	Concentration causing significant cell membrane integrity loss (HepG2 cells [1]) [µM]	Concentration at which significant depletion of ATP was observed (HepG2 cells [2]) [µM]	Concentration disrupting cellular respiration (HepG2 cells [3]) [µM]	Concentration at which significant increase in mitochondrial superoxide was observed (HepG2 cells [4]) [µM]	Amount of necrotic and apoptotic cells versus control at 2 mM (HepG2 cells [5])	Concentration causing significant reduction in cell viability (annexin V staining) (HepG2 cells [5]) [µM]	ATP content at 0.5 mM (HepG2 cells [2]; 0.5 mM)	Concentration decreasing maximal respiratory capacity (HepG2 cells [3]) [µM]	Main mechanism of cell death (HepG2 cells [5])	Concentration showing signs of uncoupling of cellular respiration from ATP synthesis (HepG2 cells [3]; OCR) [µM]
CNC(C)C(=O)c1ccc(F)cc1 (centres unmarked) [4-Fluoromethcathinone, 4-fluoromethcathinone]	0.35	5.6 (3.3–9.4)	6.6	37	> 2000	1000	> 2000	2000	did not significantly differ from control incubations	> 2000				
CC(N)Cc1ccccc1 (centres unmarked) [Amphetamine]					2000	1000		2000	did not significantly differ from control incubations					
CC(N)Cc1ccc(Cl)cc1 (centres unmarked) [4-Chloroamphetamine]	0.32	0.14 (0.07–0.25)	3.6	0.49	500	100		500		500	almost complete ATP depletion	100	necrosis	
CNC(C)C(=O)c1ccccc1 (centres unmarked) [Methcathinone, methcathinone]	0.12	34 (20–57)	1.6	54	> 2000	2000	> 2000	2000	did not significantly differ from control incubations	> 2000				
CC(N)Cc1ccc(F)cc1 (centres unmarked) [4-Fluoroamphetamine, 4-fluoroamphetamine]	0.15	3.6 (1.9–6.5)	3.9	14	2000	500		1000		1000		1000	Apoptosis	
CNC(C)C(=O)c1ccc(Cl)cc1 (centres unmarked) [4-Chloromethcathinone, 4-chloromethcathinone]	0.43	0.45 (0.25–0.83)	5.1	2.3	2000	1000		1000		1000		1000	Apoptosis	1000

— PMC6491784, “Para-Halogenation Affects Monoamine Transporter Inhibition Properties and Hepatocellular Toxicity of Amphetamines and Methcathinones” (Frontiers in Pharmacology, 2019)
